Experimental data: patent US12059464B2, “Combination therapy involving antibodies against Claudin 18.2 for treatment of cancer” (Astellas Pharma Inc., priority 2012, dated 2024)

How the values were obtained:
[1] = test system: CLDN18.2-positive cancer cell lines; assay: IMAB362 treatment of mice bearing CLDN18.2-positive cancer cell lines; conditions: mouse, in vivo
[2] = test system: NCI-N87~CLDN18.2 xenograft tumors; assay: IMAB362 immunotherapy of NCI-N87~CLDN18.2 gastric carcinoma xenografts
Excerpt: NCI-N87˜CLDN18.2 xenograft tumors were inoculated subcutaneously by injection of 1×10^7 NCI-N87˜CLDN18.2 cells into the flank of 8 nude mice (female, 6 weeks old) per treatment group. […] Intravenous administration was continued weekly for the whole observation time. Tumor size and animal health was monitored semi-weekly. […] Mice were sacrificed, when tumor reached a volume of 1400 mm^3

[3] = test system: CLS-103~cldn18.2 allograft tumors; assay: Combination therapy with IMAB362 and EOF on CLS-103~cldn18.2 allograft tumors; format: in vivo, NMRI mice; conditions: EOF i.p. day 3, 10, 17, 24; IMAB362 800 μg i.v.; IL-2 3000 IE s.c. semi-weekly
Excerpt: CLS-103˜cldn18.2 allograft tumors were inoculated by injection of 1×10^6 CLS-103˜cldn18.2 cells subcutaneous into the flank of 10 NMRI mice for each treatment group. […] After end of chemotherapy, IMAB362 and IL-2 treatment was continued for the whole observation period. Tumor size and animal health were monitored semi-weekly.

[4] = test system: HEK293~CLDN18.2 transfectants; assay: Early treatment of HEK293~CLDN18.2 tumor xenografts; format: in vivo, nude mice; conditions: 200 μg twice per week for 6 weeks i.v./i.p., start 3 days after inoculation
Excerpt: (§1) Moreover, advanced tumor treatment experiments were initiated up to 9 days after tumor cell inoculation when tumors had reached volumes of about 60-120 mm^3.
Nude mice were subcutaneously inoculated with 1×10^7 HEK293˜CLDN18.2 transfectants. Treatment of 10 mice per group started 3 days after tumor inoculation. […] Not only time to death was prolonged, but 4 of 10 mice survived the entire observation period of 210 days.

[5] = test system: CLDN18.2-positive (NUGC-4, KATO III) and negative (SK-BR-3) human target cell lines; assay: IMAB362 ADCC with ZA/IL-2 expanded effector cells on CLDN18.2-positive and negative target cell lines; format: cell-based
Method: These effector cell cultures were used in ADCC assays with CLDN18.2-positive (NUGC-4, KATO III) and negative (SK-BR-3) human target cell lines (E:T ratio 40:1). […] ADCC was measured in luciferase assays; cf. FIG. 15a. […] FIG. 15b. Same experiment as described in (a) was performed using NUGC-4 as target cells; cf. FIG. 15c. […] A purity of more than 97.0% Vγ9Vδ2 T cells in lymphocytes was obtained.

[6] = biological target: first extracellular domain (ECD1) of CLDN18.2 (Homo sapiens, UniProt P56856); assay: Binding of IMAB362 to CLDN18.2
[7] = test system: CLDN18.2-negative HEK293 tumor cells; assay: IMAB362 treatment of mice engrafted with CLDN18.2-negative tumor cells; format: in vivo; conditions: CLDN18.2-negative tumors
Excerpt: (§2) Treatment of 9 to 10 mice per group was initiated when mean tumor volumes reached 88 mm^3 (62-126 mm^3). […] All mice in the groups treated with either PBS or isotype control died within 50-100 days. […] Three of these mice survived the entire observation period (FIG. 20). Importantly, antitumoral efficacy in vivo depends on the presence of the target on the tumor cells.

[8] = test system: NCI-N87~CLDN18.2 xenograft tumors; assay: Combination therapy with IMAB362 and EOF regimen on NCI-N87~CLDN18.2 xenografts
Method: NCI-N87˜CLDN18.2 xenograft tumors were inoculated by injection of 1×10^7 NCI-N87˜CLDN18.2 cells subcutaneous into the flank of 9 mice for each treatment group. […] Tumor size and animal health was monitored semi-weekly. […] The size of s.c. tumors was measured twice weekly (mean+SEM; *p<0.05). […] Mice were sacrificed, when tumor reached a volume of 1400 mm^3.

[9] = Phase I clinical study, single intravenous administration; format: in vivo, human
Excerpt: IMAB362 is in early clinical testing. A phase I clinical study has been conducted in human. […] In an ongoing phase IIa clinical study IMAB362 is given repetitively.

[10] = test system: HEK293~CLDN18.2 tumor xenografts; assay: Treatment of advanced HEK293~CLDN18.2 tumor xenografts; format: in vivo, nude mice
Excerpt: as §1, §2

[11] = Repeated dose toxicity studies in cynomolgus monkeys; format: in vivo; conditions: up to 5 weekly applications of up to 100 mg/kg
Excerpt: (§3) This compartimentalization is lost upon malignant transformation rendering the epitope drugable by IMAB362.

[12] = test system: CLDN18.2-transfected HEK293 cells; assay: IMAB362 with ZA/IL-2 induced Vγ9Vδ2 T cells on HEK293~CLDN18.2 tumors in NSG mice; format: in vivo; conditions: 200 μg IMAB362 semi-weekly in the presence of human γδ T cells and ZA (plus IL-2)
Method: NSG mice lack mature T cells, B cells, natural killer (NK) cells, multiple cytokine signaling pathways, and they have many defects in innate immunity, whereas the niches in the primary and secondary immunological tissues are permissive to colonization by human immune cells.
NSG mice were inoculated subcutaneously with 1×10^7 CLDN18.2-transfected HEK293 cells. On the same day, mice received 8×10^6 human PBMCs enriched for Vγ9Vδ2 T cells, which were cultured for 14 days in ZA-supplemented medium. […] To maintain human T cells functional, IL-2 was administered semi-weekly and ZA weekly. […] In addition to 9 mice treated as described, two control groups of mice were established.

[13] = Toxicity and PK/TK profile studies (all toxicity studies); format: in vivo, mice and cynomolgus monkeys
Excerpt: as §3

[14] = test system: NUGC-4~CLDN18.2 xenografts; assay: IMAB362 immunotherapy of NUGC-4~CLDN18.2 xenografts; set-up: species or system mice; conditions: mouse, in vivo
[15] = Repeated dose toxicity study in mice; format: in vivo; conditions: weekly administration for 3 months, highest dose levels 400 mg/kg
Excerpt: as §3

[16] = test system: NUGC-4~CLDN18.2 xenograft tumors; assay: Combination therapy with IMAB362 and EOF regimen on NUGC-4~CLDN18.2 xenografts; format: in vivo, nude mice; conditions: chemotherapy day 3, 10, 17, 24; IMAB362 weekly
Method: Mice were treated on day 3, 10, 17 and 24 with chemotherapeutic agents. IMAB362 treatment was continued weekly.

[17] = test system: NUGC-4 cells expressing CLDN18.2; assay: IMAB362 ADCC on NUGC-4 cells with PBMCs cultivated with IL-2 with or w/o ZA (luciferase assay); format: cell-based, human; conditions: PBMCs cultivated for 14 days with ZA/IL-2; IMAB362 0.26 ng/ml-200 μg/ml
Method: Specific killing was determined in luciferase assays; cf. FIG. 14a. […] NUGC-4 served as target cells.

[18] = test system: NUGC-4 gastric cancer cells; assay: NUGC-4 gastric tumor xenograft model
Excerpt: Tumor sizes were monitored twice weekly.
Mice were stratified size-dependently into treatment groups (FIG. 21).

[19] = test system: NUGC-4 gastric cancer cells; assay: IMAB362-mediated ADCC on chemotherapy-pretreated NUGC-4 cells; format: cell-based, human; conditions: NUGC-4 pretreated with 5-FU+OX, EOF or FLO for 96 hours
Method: IMAB362-mediated ADCC was investigated using NUGC-4 gastric cancer cells as target, which were either pretreated with 10 ng/ml 5-FU and 500 ng/ml oxaliplatin (5-FU+OX), 10 ng/ml epirubicin, 500 ng/ml oxaliplatin and 10 ng/ml 5-FU (EOF) or 10 ng/ml 5-FU, 50 ng/ml folinic acid and 500 ng/ml oxaliplatin (FLO) for 96 hours (effector:target ratio 40:1) or untreated. EC50 values were obtained from 7 healthy donors for untreated and EOF, FLO or 5-FU+OX pretreated NUGC-4 cells.

NUGC-4 xenografts = assay: In vivo tumor targeting of Dyelight 680-labeled antibodies (fluorescence imaging); set-up: species or system nude mice

IMAB362: chimeric IgG1 antibody directed against CLDN18.2, developed by Ganymed Pharmaceuticals AG
mice showing regression of their tumor [1]: up to 40%
tumor growth ([2]; 800 μg i.v. weekly from day 5, versus saline): inhibited highly significant (p<0.001) tumor growth
survival time ([2]; 800 μg i.v. weekly, sacrifice at 1400 mm^3): significantly (p<0.05) longer survival time
tumor growth inhibition [3]: no significant tumor growth inhibition
mice surviving the entire observation period of 210 days [4]: 4 of 10
ADCC activity with purified (>97%) Vγ9Vδ2 T cells ([5]; NUGC-4 targets, cells sorted from ZA/IL-2-cultured PBMC on day 14): retained and partly improved
ADCC activity on CLDN18.2-positive versus CLDN18.2-negative cell lines ([5]; ZA/IL-2 cultured effector cells, E:T ratio 40:1): Strong ADCC activity against CLDN18.2-positive, but not CLDN18.2-negative human tumor cell lines
affinity and specificity for CLDN18.2 ECD1 [6]: high affinity and specificity
antitumoral effects [7]: No antitumoral effects
tumor growth ([8]; EOF i.p. day 4, 11, 18, 25, IMAB362 800 μg i.v. weekly): highly significant suppressed tumor growth
median survival ([8]; saline control 59 days, sacrifice at 1400 mm^3): 76 days
tolerability in patients ([9]; single i.v. administration, 33-1000 mg/m^2, observed for 28 days): very well tolerated
tumor markers in one patient ([9]; within 4 weeks after treatment): decreased significantly
median survival time ([10]; 200 μg twice per week for 6 weeks, start at mean tumor volume 88 mm^3, controls 25 days): 47 days
mice surviving the entire observation period ([10]; 9 to 10 mice per group): Three
tolerability of repeated i.v. doses [11]: well tolerated
outgrowth of CLDN18.2-positive tumors [12]: significantly inhibited and nearly abrogated
gastric toxicity ([13]; any toxicity study): no gastric toxicity
adverse effects on male or female reproductive organs ([13]; in vivo): No adverse effects
immune activation and cytokine release ([13]; in vivo): does not induce immune activation and cytokine release
systemic or local toxicity ([13]; repeated i.v. doses): No signs of systemic or local toxicity
survival [14]: significantly (p<0.05) longer survival
tumor sizes at day 14 of treatment [14]: significant (p<0.05) smaller tumor sizes
tolerability of repeated i.v. doses [15]: well tolerated
tumor growth [16]: inhibited significantly the tumor growth
ADCC activity against CLDN18.2-positive NUGC-4 cells [17]: Strong IMAB362-dependent ADCC activity
tumor growth compared to controls ([18]; 200 μg twice weekly i.v./i.p. starting 6 days after inoculation, p<0.05): significant inhibited
tumor volumes at day 21 after tumor inoculation compared to control mice ([18]; p<0.05): significant smaller
median survival time ([18]; treatment initiated at about 109 mm^3, versus 25 days, non-significant): 31 days
tumor growth rate ([18]; treatment initiated at mean tumor size of about 109 mm^3): significantly reduce tumor growth rate
maximal lysis in IMAB362-mediated ADCC versus untreated target cells [19]: higher maximal lysis
localisation of labeled antibody, live imaging (NUGC-4 xenografts; 24 hours after i.v. injection, 80 μg Dyelight 680-labeled antibody): accumulates strongly and exclusively in the tumor xenografts
retention of labeled antibody signal in tumor (NUGC-4 xenografts; 120 hours after injection): detectable in comparable intensity even after 120 hours
